Results reported in PMC8287923, “A small-molecule chemical interface for molecular programs” (Nucleic Acids Research, 2021).
pKd: −log10 of the molar value.

Legend:
Assay type in all cases: biochemical
LacI = target: T1, LacI (Escherichia coli, UniProt P03023); assay: purified LacI with O1 operator DNA template (psTLacI); PEN-DNA fluorescent switch dose response ([…])
T1 construct: purified LacI with C-terminal His-tag (dimer)

[1] = target: T2, Tryptophan synthase subunit B (TrpB), EcB (Escherichia coli, UniProt P0A879, M149T/N171D); assay: HPLC of overnight enzymatic conversion of indole and L-serine to L-trp
T2 construct: purified standalone TrpB variant (EcB)
T2 sequence (P0A879 2-397 M149T/N171D): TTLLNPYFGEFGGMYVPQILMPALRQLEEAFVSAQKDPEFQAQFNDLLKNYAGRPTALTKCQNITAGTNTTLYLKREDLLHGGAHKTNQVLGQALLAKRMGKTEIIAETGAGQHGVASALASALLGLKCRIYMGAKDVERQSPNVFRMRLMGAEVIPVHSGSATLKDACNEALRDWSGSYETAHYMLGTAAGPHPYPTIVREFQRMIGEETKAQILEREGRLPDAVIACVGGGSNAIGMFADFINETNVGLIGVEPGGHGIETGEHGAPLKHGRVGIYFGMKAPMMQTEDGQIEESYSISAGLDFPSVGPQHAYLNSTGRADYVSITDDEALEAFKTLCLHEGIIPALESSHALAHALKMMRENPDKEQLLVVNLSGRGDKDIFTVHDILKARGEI

TrpR = TrpR (Escherichia coli, UniProt P0A881); assay: purified TrpR with operator DNA template (psTTrpR); PEN-DNA fluorescent switch dose response, Hill fit

Row | SMILES | HPLC of overnight enzymatic conversion of indole and L-serine to L-trp [1] | also measured
1 | CC(C)S[C@@H]1O[C@H](CO)[C@H](O)[C@H](O)[C@H]1O [IPTG, isopropyl β-d-1-thiogalactopyranoside] | – | pKd (LacI): ~4.00
2 | N[C@@H](CO)C(=O)O [L-serine] | Enzymatic activity of EcB L-trp synthesis was confirmed through HPLC evaluation. | –
3 | c1ccc2[nH]ccc2c1 [indole] | Enzymatic activity of EcB L-trp synthesis was confirmed through HPLC evaluation. | –
4 | N[C@@H](Cc1c[nH]c2ccccc12)C(=O)O [L-trp] | – | pKd (TrpR): 4.62
